Results taken from US9695155B2, “Herbicidal substituted pyrimidinyloxy benzene compounds” (E. I. DU PONT DE NEMOURS AND COMPANY, priority 2013, dated 2017).

Key:
kochia = assay: Test D preemergence; format: in vivo, Kochia scoparia
Description: (§1) Seeds of plant species selected from bluegrass (annual bluegrass, Poa annua), blackgrass (Alopecurus myosuroides), canarygrass (littleseed canarygrass, Phalaris minor), chickweed (common chickweed, Stellaria media), galium (catchweed bedstraw, Galium aparine), bromegrass, downy (downy bromegrass, Bromus tectorum), field poppy (Papaver rhoeas), field violet (Viola arvensis), green foxtail (Setaria viridis), deadnettle (henbit deadnettle, Lamium amplexicaule), Italian ryegrass (Lolium multiflorum), kochia (Kochia scoparia), lambsquarters (Chenopodium album), oilseed rape (Brassica napus), pigweed (Amaranthus retroflexus), chamomile (scentless chamomile, Matricaria inodora), Russian thistle (Salsola kali), speedwell (bird's-eye speedwell, Veronica persica), spring barley (Hordeum vulgare), spring wheat (Triticum aestivum), wild buckwheat (Polygonum convolvulus), wild mustard (Sinapis arvensis), wild oat (Avena fatua), wild radish (Raphanus raphanistrum), windgrass (Apera spica-venti), winter barley (Hordeum vulgare), and winter wheat (Triticum aestivum) were planted into a silt loam soil and treated preemergence with test chemicals formulated in a non-phytotoxic solvent mixture which included a surfactant.
(§2) At the same time, these species were planted in pots containing Redi-Earth® planting medium (Scotts Company, 14111 Scottslawn Road, Marysville, Ohio 43041) comprising spaghnum peat moss, vermiculite, wetting agent and starter nutrients and treated with postemergence applications of the test chemicals formulated in the same manner. Plants ranged in height from 2 to 18 cm (1- to 4-leaf stage). Treated plants and controls were maintained in a controlled growth environment for 7 to 21 days after which time all species were compared to controls and visually evaluated. Plant response ratings, summarized in Table D, are based on a scale of 0 to 100 where 0 is no effect and 100 is complete control. A dash (-) response means no test result.

wild mustard = assay: Test D preemergence; format: in vivo, Sinapis arvensis
Description: as §1, §2

sedge, umbrella = assay: Test C flooded paddy test; format: in vivo, Cyperus difformis; settings: Flood, scale 0 to 100 (0 no effect, 100 complete control), 13 to 15 days
Method in brief: (§3)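 Pots were flooded to 3 cm above the soil surface at treatment, compound applied directly to the paddy water, and that depth held throughout. Plants were kept in a greenhouse for 13 to 15 days, then visually rated against untreated controls.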

barnyardgrass [1] = assay: Test C flooded paddy test; format: in vivo, Echinochloa crus-galli; settings: Flood, scale 0 to 100 (0 no effect, 100 complete control), 13 to 15 days
Method in brief: as §3

velvetleaf = assay: Test E preemergence; format: in vivo, Abutilon theophrasti; settings: for Velvetleaf plant response rating: scale 0 to 100 (0 no effect, 100 complete control)
Method in brief: (§4)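 Compound in a non-phytotoxic solvent mixture with surfactant was applied preemergence to seeds in silt loam soil, or postemergence to plants 2 to 18 cm tall grown in peat-based potting medium. Plants were kept in a greenhouse for 14 to 21 days, then rated visually against untreated controls on a 0 (no effect) to 100 (complete control) scale.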

lambsquarters = assay: Test E preemergence; format: in vivo, Chenopodium album; settings: for Lambsquarters plant response rating: scale 0 to 100 (0 no effect, 100 complete control)
Method in brief: as §4

surinam grass = assay: Test E preemergence; format: in vivo, Brachiaria decumbens; settings: for Surinam Grass plant response rating: scale 0 to 100 (0 no effect, 100 complete control)
Method in brief: as §4

large (Lg) crabgrass = assay: Test E preemergence; format: in vivo, Digitaria sanguinalis; settings: for Crabgrass, Large plant response rating: scale 0 to 100 (0 no effect, 100 complete control)
Method in brief: as §4

Brazilian crabgrass = assay: Test E preemergence; format: in vivo, Digitaria horizontalis; settings: for Crabgrass, Brazil plant response rating: scale 0 to 100 (0 no effect, 100 complete control)
Method in brief: as §4

barnyardgrass [2] = assay: Test E preemergence; format: in vivo, Echinochloa crus-galli; settings: for Barnyardgrass plant response rating: scale 0 to 100 (0 no effect, 100 complete control)
Method in brief: as §4

arrowleaf sida = assay: Test E preemergence; format: in vivo, Sida rhombifolia; settings: for Arrowleaf Sida plant response rating: scale 0 to 100 (0 no effect, 100 complete control)
Method in brief: as §4

[3] = 31 g ai/ha, scale 0 (no effect) to 100 (complete control)
[4] = 8 g ai/ha, scale 0 to 100, 0 is no effect, 100 is complete control
[5] = 125 g ai/ha, scale 0 to 100, 0 no effect, 100 complete control
[6] = 8 g ai/ha, preemergence, scale 0 to 100, 0 is no effect, 100 is complete control
[7] = preemergence, 125 g ai/ha, scale 0 to 100, 0 no effect, 100 complete control
[8] = 250 g ai/ha, scale 0 to 100, 0 no effect, 100 complete control
[9] = Preemergence, 62 g ai/ha, scale 0 to 100, 0 no effect, 100 complete control
[10] = preemergence, 250 g ai/ha, scale 0 to 100, 0 no effect, 100 complete control

| Structure (SMILES) | Plant response rating, Sedge, Umbrella (sedge, umbrella; 62 g ai/ha) | Plant response rating, Sedge, Umbrella (sedge, umbrella; 125 g ai/ha) | Plant response rating, Sedge, Umbrella (sedge, umbrella; 250 g ai/ha) | Plant response rating, Barnyardgrass (barnyardgrass [1]; 62 g ai/ha) | Plant response rating, Barnyardgrass (barnyardgrass [1]; 125 g ai/ha) | Plant response rating, Barnyardgrass (barnyardgrass [1]; 250 g ai/ha) | Velvetleaf plant response rating (velvetleaf; 62 g ai/ha) | Plant response rating, Velvetleaf (velvetleaf; [5]) | Lambsquarters plant response rating (lambsquarters; 62 g ai/ha) | Plant response rating, Lambsquarters (lambsquarters; [5]) | Surinam Grass plant response rating (surinam grass; 62 g ai/ha) | Plant response rating, Surinam Grass (surinam grass; [5]) | Crabgrass, Large plant response rating (large (Lg) crabgrass; 62 g ai/ha) | Plant response rating, Crabgrass, Large (large (Lg) crabgrass; [5]) | Crabgrass, Brazil plant response rating (Brazilian crabgrass; 62 g ai/ha) | Plant response rating, Crabgrass, Brazil (Brazilian crabgrass; [5]) | Barnyardgrass plant response rating (barnyardgrass [2]; 62 g ai/ha, preemergence) | Plant response rating, Barnyardgrass (barnyardgrass [2]; [7]) | Arrowleaf Sida plant response rating (arrowleaf sida; 62 g ai/ha, preemergence) | Plant response rating, Arrowleaf Sida (arrowleaf sida; [7]) | other results |
| --- | --- | --- | --- | --- | --- | --- | --- | --- | --- | --- | --- | --- | --- | --- | --- | --- | --- | --- | --- | --- | --- |
| FC(F)(F)c1cn(-c2ccccc2Oc2ncc(Cl)cn2)nn1 [Compound 166, 5-chloro-2-[2-[4-(trifluoromethyl)-1H-1,2,3-triazol-1-yl]phenoxy]pyrimidine] | – | – | – | – | – | – | – | – | – | – | – | – | – | – | – | – | – | – | – | – | pest or weed control at 16 g/ha (kochia; Bassia scoparia, pre-emergence, 16 g ai/ha, scale 0 (no effect) to 100 (complete control), read-out: Plant response rating, Kochia): 35%; pest or weed control at 31 g/ha (kochia; Bassia scoparia, pre-emergence, 31 g ai/ha, scale 0-100, read-out: Plant response rating, Kochia): 65%; pest or weed control at 62 g/ha (kochia; Bassia scoparia, pre-emergence, 62 g ai/ha, scale 0-100, read-out: Plant response rating, Kochia): 95%; pest or weed control at 125 g/ha (kochia; Bassia scoparia, pre-emergence, 125 g ai/ha, scale 0-100, read-out: Plant response rating, Kochia): 100%; pest or weed control at 16 g/ha (wild mustard; Brassica, pre-emergence, 16 g ai/ha, scale 0 (no effect) to 100 (complete control), read-out: Plant response rating, Mustard, Wild): 65%; pest or weed control at 31 g/ha (wild mustard; Brassica, pre-emergence, 31 g ai/ha, scale 0-100, read-out: Plant response rating, Mustard, Wild): 95%; pest or weed control at 62 g/ha (wild mustard; Brassica, pre-emergence, 62 g ai/ha, scale 0-100, read-out: Plant response rating, Mustard, Wild): 100%; pest or weed control at 125 g/ha (wild mustard; Brassica, pre-emergence, 125 g ai/ha, scale 0-100, read-out: Plant response rating, Mustard, Wild): 100% |
| N#Cc1cccc(Oc2ncc(Cl)cn2)c1-n1cc(-n2ccc(C(F)(F)F)n2)cn1 [Compound 284] | – | – | – | – | – | – | – | – | – | – | – | – | – | – | – | – | – | – | – | – | Plant response rating, Kochia (kochia; [3]): 0; Plant response rating, Kochia (kochia; 62 g ai/ha, scale 0-100): 20; Plant response rating, Kochia (kochia; 125 g ai/ha, scale 0-100): 100; Plant response rating, Kochia (kochia; 250 g ai/ha, scale 0-100): 95; Plant response rating, Mustard, Wild (wild mustard; [3]): 15; Plant response rating, Mustard, Wild (wild mustard; 62 g ai/ha, scale 0-100): 15; Plant response rating, Mustard, Wild (wild mustard; 125 g ai/ha, scale 0-100): 90; Plant response rating, Mustard, Wild (wild mustard; 250 g ai/ha, scale 0-100): 100 |
| Fc1cccc(Oc2ncc(Cl)cn2)c1-n1cc(I)cn1 [Compound 179] | 0 | 40 | 80 | 0 | 0 | 0 | 100 | 100 | 95 | 100 | 0 | 0 | 75 | 98 | 65 | 100 | 10 | 20 | 100 | 100 | Plant response rating, Sedge, Umbrella (sedge, umbrella; 31 g ai/ha): 0; Plant response rating, Barnyardgrass (barnyardgrass [1]; 31 g ai/ha): 0; Plant response rating, Velvetleaf (velvetleaf; [4]): 20; Plant response rating, Lambsquarters (lambsquarters; [4]): 0; Plant response rating, Surinam Grass (surinam grass; [4]): 0; Plant response rating, Crabgrass, Large (large (Lg) crabgrass; [4]): 0; Crabgrass, Large plant response rating (large (Lg) crabgrass; 16 g ai/ha): 0; Plant response rating, Crabgrass, Brazil (Brazilian crabgrass; [4]): 0; Crabgrass, Brazil plant response rating (Brazilian crabgrass; 16 g ai/ha): 0; Plant response rating, Barnyardgrass (barnyardgrass [2]; [6]): 0; Barnyardgrass plant response rating (barnyardgrass [2]; 16 g ai/ha, preemergence): 0; Plant response rating, Arrowleaf Sida (arrowleaf sida; [6]): 0; Arrowleaf Sida plant response rating (arrowleaf sida; 16 g ai/ha, preemergence): 20 |
| CCOc1cnn(-c2c(C#N)cccc2Oc2ncc(F)cn2)c1 [Compound 89] | 0 | 50 | 70 | 0 | 15 | 20 | 65 | 90 | 5 | 95 | 0 | 10 | 85 | 100 | 90 | 100 | – | 70 | – | 100 | Velvetleaf plant response rating (velvetleaf; 31 g ai/ha): 20; Plant response rating, Velvetleaf (velvetleaf; [8]): 100; Lambsquarters plant response rating (lambsquarters; 31 g ai/ha): 20; Plant response rating, Lambsquarters (lambsquarters; [8]): 100; Surinam Grass plant response rating (surinam grass; 31 g ai/ha): 0; Plant response rating, Surinam Grass (surinam grass; [8]): 75; Crabgrass, Large plant response rating (large (Lg) crabgrass; 31 g ai/ha): 35; Plant response rating, Crabgrass, Large (large (Lg) crabgrass; [8]): 100; Crabgrass, Brazil plant response rating (Brazilian crabgrass; 31 g ai/ha): 20; Plant response rating, Crabgrass, Brazil (Brazilian crabgrass; [8]): 100; Barnyardgrass plant response rating (barnyardgrass [2]; 31 g ai/ha, preemergence): 0; Plant response rating, Barnyardgrass (barnyardgrass [2]; [9]): 20; Plant response rating, Barnyardgrass (barnyardgrass [2]; [10]): 98; Arrowleaf Sida plant response rating (arrowleaf sida; 31 g ai/ha, preemergence): 50; Plant response rating, Arrowleaf Sida (arrowleaf sida; [9]): 75; Plant response rating, Arrowleaf Sida (arrowleaf sida; [10]): 100 |
| N#Cc1cnn(-c2c(CF)cccc2Oc2ncc(F)cn2)c1 [Compound 151] | – | – | – | – | – | – | 100 | 100 | 100 | 100 | 35 | 100 | 60 | 100 | 70 | 75 | 10 | 75 | 100 | 100 | Velvetleaf plant response rating (velvetleaf; 31 g ai/ha): 95; Lambsquarters plant response rating (lambsquarters; 31 g ai/ha): 100; Surinam Grass plant response rating (surinam grass; 31 g ai/ha): 0; Crabgrass, Large plant response rating (large (Lg) crabgrass; 16 g ai/ha): 0; Crabgrass, Large plant response rating (large (Lg) crabgrass; 31 g ai/ha): 5; Crabgrass, Brazil plant response rating (Brazilian crabgrass; 16 g ai/ha): 0; Crabgrass, Brazil plant response rating (Brazilian crabgrass; 31 g ai/ha): 35; Barnyardgrass plant response rating (barnyardgrass [2]; 16 g ai/ha, preemergence): 0; Barnyardgrass plant response rating (barnyardgrass [2]; 31 g ai/ha, preemergence): 20; Arrowleaf Sida plant response rating (arrowleaf sida; 16 g ai/ha, preemergence): 60; Arrowleaf Sida plant response rating (arrowleaf sida; 31 g ai/ha, preemergence): 80 |
| FC(F)c1cccc(Oc2ncc(Cl)cn2)c1-n1cc(Br)cn1 [Compound 194, 2-[2-(4-bromo-1H-pyrazol-1-yl)-3-(difluoromethyl)phenoxy]-5-chloropyrimidine] | 75 | 85 | 95 | 0 | 0 | 0 | 25 | – | 100 | – | 0 | – | 95 | – | 98 | – | 0 | – | 100 | – | Plant response rating, Sedge, Umbrella (sedge, umbrella; 31 g ai/ha): 50; Plant response rating, Barnyardgrass (barnyardgrass [1]; 31 g ai/ha): 0; Velvetleaf plant response rating (velvetleaf; 31 g ai/ha): 5; Lambsquarters plant response rating (lambsquarters; 31 g ai/ha): 80; Surinam Grass plant response rating (surinam grass; 31 g ai/ha): 0; Crabgrass, Large plant response rating (large (Lg) crabgrass; 31 g ai/ha): 85; Crabgrass, Brazil plant response rating (Brazilian crabgrass; 31 g ai/ha): 65; Barnyardgrass plant response rating (barnyardgrass [2]; 31 g ai/ha, preemergence): 0; Arrowleaf Sida plant response rating (arrowleaf sida; 31 g ai/ha, preemergence): 35 |
